Our source for the Ki values is patent publication US6849732B2, “Metalloproteinase inhibitors, pharmaceutical compositions containing them and their pharmaceutical uses, and methods and intermediates useful for their preparation” (Agouron Pharmaceuticals, Inc., priority 1995, dated 2005).

Counter-ions that a name gives are not always drawn.

Holding throughout (assay type): biochemical
In experiment [1] the target is T1, matrilysin (Matr.) (Homo sapiens, UniProt P09237).
T1 sequence (P09237 95-267): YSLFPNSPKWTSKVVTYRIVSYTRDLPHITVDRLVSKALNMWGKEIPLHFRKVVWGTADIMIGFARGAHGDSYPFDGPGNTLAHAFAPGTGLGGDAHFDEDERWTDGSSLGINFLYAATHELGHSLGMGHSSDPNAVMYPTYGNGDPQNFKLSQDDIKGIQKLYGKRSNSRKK
Description: MCA fluorogenic enzyme assay, competitive inhibition analysis (Ki,app), matrilysin. As to conditions: MCA peptide substrate, 37° C., pH 7.5, read-out: Enzyme Inhibition Constants (K1) Matr. As for the experimental part:
Stromelysin enzymatic activity was measured using a modified version of a resonance energy transfer fluorogenic assay as described in FEBS, vol. 296(3), p. 263 (1992), the disclosure of which is incorporated herein by reference. The MCA-peptide substrate is shown below. The fluorescent MCA group is quenched by resonance energy transfer to the 2,4-dinitrophenyl group. Matrix metalloproteinases cleave this substrate at the Gly-Leu bond. Cleavage results in the loss of energy transfer and a large increase in fluorescence of the MCA group. [drawing 56] 7-methoxycoumarin-4-yl-acetyl-pro-leu-gly-leu-3-(2,4-dinitrophenyl)-L-2,3-diaminoproprionyl-ala-arg-NH2
The MCA assay was performed at 37° C. in buffer containing 50 mM Tricine (pH 7.5), 10 mM CaCl2, 200 mM NaCl, and 1% DMSO with the following concentrations of matrix metalloproteinases: 1.4 nM stromelyin, 0.063 nM matrilysin, and 0.030 nM gelatinase A. The concentration of MCA substrate was 10 or 20 μM in a final volume of 1.6 mL. Fluorescence data was collected with Perkin-Elmer LS-5B and LS-5B spectrofluorimeters with λexcitation=328 nm and λemission=393 nm. Spectrofluorimeters were interfaced with IBM-compatible microcomputer systems.
The Km for the MCA peptide substrate with the matrix metalloproteinases is quite high and exceeds its solubility under assay conditions. Consequently, the apparent Ki (Ki,app) was determined to describe the strength of inhibition. However, in this case, Ki,app would be essentially equal to Ki since [S]<<Km. For the determination of Ki,app, the concentration of the inhibitor was varied at a constant and low concentration of substrate and the steady-state rates of fluorescence change determined. In most cases absorptive quench due to the presence of ligand was not observed. For slow-binding inhibitors, onset of inhibition curves were collected for at least 45 minutes so that equilibrium was established. Steady-state rates of fluorescence change were obtained by fitting a curve to an equation for a single exponential decay containing a linear phase. The fitted value of the linear phase was taken as the steady-state rate. The steady-state rates were fitted to the Michaelis equation describing competitive inhibition by non-linear methods. Data resulting from tight-binding inhibition was analyzed, and Ki,app determined by fitting the data to the tight-binding equation of Morrison See (Biochem. Biophys. Acta, vol. 185, pp. 269-286 (1969)) by non-linear methods.

In experiment [2] the target is stromelysin (HSLN) (Homo sapiens, UniProt P08254). The experiment in a line: MCA fluorogenic enzyme assay, competitive inhibition analysis (Ki,app), stromelysin. As to conditions: Ki,app; MCA peptide substrate, 37° C., pH 7.5; read-out: Enzyme Inhibition Constants (K1) HSLN.
stromelysin (HSLN), sequence (P08254 100-477): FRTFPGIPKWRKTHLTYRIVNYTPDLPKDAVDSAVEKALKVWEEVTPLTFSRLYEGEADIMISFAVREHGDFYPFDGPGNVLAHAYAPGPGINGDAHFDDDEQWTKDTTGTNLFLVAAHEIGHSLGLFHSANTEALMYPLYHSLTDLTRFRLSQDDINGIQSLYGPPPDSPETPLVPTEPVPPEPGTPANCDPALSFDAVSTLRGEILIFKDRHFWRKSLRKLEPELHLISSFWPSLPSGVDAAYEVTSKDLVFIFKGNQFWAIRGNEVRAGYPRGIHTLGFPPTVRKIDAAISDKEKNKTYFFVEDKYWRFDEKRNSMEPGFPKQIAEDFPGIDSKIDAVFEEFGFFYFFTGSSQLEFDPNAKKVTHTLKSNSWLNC
The target of experiment [3] is T2, gelatinase A (HG72kD) (Homo sapiens, UniProt P08253).
T2 sequence (P08253 110-660): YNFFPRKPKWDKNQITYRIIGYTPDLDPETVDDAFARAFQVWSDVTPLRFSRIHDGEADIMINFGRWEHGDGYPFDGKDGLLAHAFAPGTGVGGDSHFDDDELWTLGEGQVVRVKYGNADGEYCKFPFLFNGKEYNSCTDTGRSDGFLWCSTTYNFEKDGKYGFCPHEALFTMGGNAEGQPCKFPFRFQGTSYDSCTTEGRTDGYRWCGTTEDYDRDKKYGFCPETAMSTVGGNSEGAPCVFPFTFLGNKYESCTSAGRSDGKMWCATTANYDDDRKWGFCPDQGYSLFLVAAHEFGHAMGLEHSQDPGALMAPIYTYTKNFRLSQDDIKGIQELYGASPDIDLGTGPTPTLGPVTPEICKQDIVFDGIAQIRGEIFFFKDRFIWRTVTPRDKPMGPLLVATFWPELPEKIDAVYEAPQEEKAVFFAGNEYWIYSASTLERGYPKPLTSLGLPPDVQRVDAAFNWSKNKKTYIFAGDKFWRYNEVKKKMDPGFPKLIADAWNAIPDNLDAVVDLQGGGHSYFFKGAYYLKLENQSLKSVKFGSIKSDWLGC
Description: MCA fluorogenic enzyme assay, competitive inhibition analysis (Ki,app), gelatinase A. As to conditions: MCA peptide substrate, 37° C., pH 7.5, read-out: Enzyme Inhibition Constants (K1) HG72kD.

In experiment [4] the target is Coll3 (Homo sapiens, UniProt P45452). The experiment in a line: MCA fluorogenic enzyme assay, competitive inhibition analysis (Ki,app), Coll3. As to conditions: MCA peptide substrate, 37° C., pH 7.5, read-out: Enzyme Inhibition Constants (K1) Coll3.
The target in experiment [5] is T3, HFC (Homo sapiens, UniProt P03956).
T3 sequence (P03956 100-469): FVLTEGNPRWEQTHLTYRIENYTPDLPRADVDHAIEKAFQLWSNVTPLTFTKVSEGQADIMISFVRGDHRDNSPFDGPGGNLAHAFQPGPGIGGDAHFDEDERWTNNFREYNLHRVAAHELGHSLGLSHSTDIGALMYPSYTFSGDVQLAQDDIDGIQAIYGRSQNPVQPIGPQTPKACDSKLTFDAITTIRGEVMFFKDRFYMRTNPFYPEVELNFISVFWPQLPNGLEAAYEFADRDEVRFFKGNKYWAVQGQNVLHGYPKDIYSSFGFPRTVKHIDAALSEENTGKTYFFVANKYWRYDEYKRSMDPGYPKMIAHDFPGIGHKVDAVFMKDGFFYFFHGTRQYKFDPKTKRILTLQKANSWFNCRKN
The experiment in a line: MCA fluorogenic enzyme assay, competitive inhibition analysis (Ki,app), HFC. As to conditions: MCA peptide substrate, 37° C., pH 7.5, read-out: Enzyme Inhibition Constants (K1) HFC.

Take `O=C(NO)C1CSCCN1S(=O)(=O)c1ccc(Oc2ccccc2)cc1` (racemic) [Example 13(b), 3(R/S)-N-hydroxy-4-(4-phenoxybenzenesulfonyl)-tetrahydro-2H-1,4-thiazine-3-carboxamide]: the Ki in experiment [1] was 201 nM; in experiment [2], 0.647 nM; in experiment [3], 0.025 nM; in experiment [4], 0.029 nM.

Take `CCOC(=O)CN1CCN(S(=O)(=O)c2ccc(Oc3ccc(Cl)cc3)cc2)[C@@H](C(=O)NO)C1` [Example 11(c), 2(R)-N-hydroxy-1-(4-(4-chlorophenoxy)benzenesulfonyl)-4-(ethoxycarbonylmethyl)-piperazine-2-carboxamide hydrochloride]: the Ki in experiment [5] was found to be 48 nM; in experiment [1], 240 nM; in experiment [2], 0.25 nM.

`CN1CCN(S(=O)(=O)c2ccc(Oc3ccc(Cl)cc3)cc2)[C@@H](C(=O)NO)C1` [Example 11(a), 2(R)-N-hydroxy-1-(4-(4-chlorophenoxy)benzenesulfonyl)-4-methyl-piperazine-2-carboxamide hydrochloride]: the Ki in experiment [5] is 130 nM; in experiment [1], 993 nM; in experiment [2], 0.67 nM; in experiment [3], 0.025 nM; in experiment [4], 0.02 nM.

As to `CS(=O)(=O)N1CCN(S(=O)(=O)c2ccc(Oc3ccc(Cl)cc3)cc2)[C@@H](C(=O)NO)C1` [Example 12(a), 2(R)-N-hydroxy-1-(4-(4-chlorophenoxy)benzenesulfonyl)-4-(methanesulfonyl)-piperazine-2-carboxamide], the Ki came to 2.5 nM in experiment [5]; 28 nM in experiment [1]; 0.043 nM in experiment [2]; 0.003 nM in experiment [3]; 0.002 nM in experiment [4].

For the molecule `CN1CCN(S(=O)(=O)c2ccc(Oc3ccccc3)cc2)[C@@H](C(=O)NO)C1` [Example 11(b), 2(R)-N-hydroxy-1-(4-phenoxybenzenesulfonyl)-4-methyl-piperazine-2-carboxamide], the Ki in experiment [1] stood at 2180 nM; in experiment [2] it was 6.3 nM; in experiment [3], 0.101 nM; in experiment [4], 0.158 nM.

Take `CC1(C)[C@H](C(=O)NO)N(S(=O)(=O)c2ccc(Oc3ccncc3)cc2)CC[S@+]1[O-]` [Example 19(a), 1(S), 3(S) isomer, 1(S), 3(S)-N-hydroxy-4-(4-((pyrid-4-yl)oxy)benzenesulfonyl)-2,2-dimethyl-1-oxotetrahydro-2H-1,4-thiazine-3-carboxamide]: the Ki in experiment [5] was determined as 31 nM; in experiment [2], 2.3 nM; in experiment [3] it was 0.49 nM; in experiment [4] it was 0.16 nM.

In the case of `O=C(NO)C1CSCCN1S(=O)(=O)c1ccc(Oc2ccc(Br)cc2)cc1` (racemic) [Example 13(a), 3(R/S)-N-hydroxy4-(4-bromophenoxybenzenesulfonyl)-tetrahydro-2H-1,4-thiazine-3-carboxamide], the results for the Ki in experiment [1], in experiment [2] and in experiment [3] were 169 nM, 0.333 nM and 0.04 nM, respectively.

As for `O=C1C[C@H](C(=O)NO)N(S(=O)(=O)c2ccc(Oc3ccc(F)cc3)cc2)CN1` [Example 15(b), 6(R)-(N-hydroxycarbamoyl)-1-(4-(4-fluorophenoxy)benzene-sulfonyl)-tetrahydropyrimidin-4-one], the Ki is 187 nM in experiment [5], 1840 nM in experiment [1], 5.1 nM in experiment [2] and 0.152 nM in experiment [3].

Take `CNC(=O)N1CCN(S(=O)(=O)c2ccc(Oc3ccc(Cl)cc3)cc2)C(C(=O)NO)C1` (racemic) [Example 6(a), 2(R/S)-N-hydroxy-1-(4-(4-chlorophenoxy)benzenesulfonyl)-4-(N-methylcarbamoyl)-piperazine-2-carboxamide]: the Ki in experiment [1] was determined as 109 nM; in experiment [2] it was 0.406 nM; in experiment [3], 0.034 nM; in experiment [4], 0.016 nM.

For the molecule `CC1(C)[C@H](C(=O)NO)N(S(=O)(=O)c2ccc(Oc3ccncc3)cc2)CC[S@@+]1[O-]` (single isomer, unassigned; isomer 1) [Example 19(a), 1(R), 3(S) isomer], the Ki turned out to be 32 nM in experiment [5], 1.4 nM in experiment [2], 0.094 nM in experiment [3] and 0.13 nM in experiment [4].

`CC(C)(C)OC(=O)N1CCN(S(=O)(=O)c2ccc(Oc3ccc(F)cc3)cc2)[C@@H](C(=O)NO)C1` [Example 9(b), 2(R)-N-hydroxy-1-(4-(4-fluorophenoxy)benzenesulfonyl)-4-(t-butoxycarbonyl)-piperazine-2-carboxamide]: the Ki is 18 nM in experiment [5], 220 nM in experiment [1], 0.49 nM in experiment [2] and 0.026 nM in experiment [3].

Take `COc1ccc(Oc2ccc(S(=O)(=O)N3CCN(S(C)(=O)=O)CC3C(=O)NO)cc2)cc1` (racemic) [Example 12(c)]: the Ki turned out to be 16 nM in experiment [5], 74 nM in experiment [1] and 0.19 nM in experiment [2].

Consider `CC1(C)NC(=O)CN(S(=O)(=O)c2ccc(Oc3ccc(F)cc3)cc2)C1C(=O)NO` (racemic) [Example 21, 2(R/S)-1-[4-(4-fluorophenoxy)benzenesulfonyl]-3,3-dimethyl-N-hydroxy-5-oxo-piperazine-2-carboxamide], for which the Ki was 5.9 nM in experiment [5], 0.84 nM in experiment [2], 0.066 nM in experiment [3] and 0.068 nM in experiment [4].

In the case of `CC(=O)N1CCCN(S(=O)(=O)c2ccc(Oc3ccc(F)cc3)cc2)C1C(=O)NO` (racemic) [Example 22, 2(R/S)-3-acetyl-1-4-(4-fluorophenoxy)benzenesulfonyl-N-hydroxy-hexahydropyrimidine-2-carboxamide], the Ki in experiment [2] amounted to 4.4 nM; in experiment [3] it was 0.077 nM; in experiment [4], 0.088 nM.

Consider `CC1(C)SCCN(S(=O)(=O)c2ccc(Oc3ccc(Cl)cc3)cc2)[C@H]1C(=O)NO` [Example 3(b), 3(S)-N-hydroxy4-(4-(4-chlorophenoxy)benzenesulfonyl)-2,2-dimethyl-tetrahydro-2H-1,4-thiazine-3-carboxamide], for which the Ki in experiment [5] was found to be 1.3 nM; in experiment [2], 0.059 nM; in experiment [3], 0.017 nM; in experiment [4], 0.001 nM.
